Experimental data taken from ChEMBL document CHEMBL1909046, “DrugMatrix in vitro pharmacology data”.

Experiments:
[1] = target: T1, Alpha-1D adrenergic receptor (Homo sapiens, UniProt P25100); format: cell membranes, HEK293, Membrane; details: hek293; further: in other assays of this panel Not Active means under 50% inhibition at 10 µM
T1 sequence (P25100 whole entry): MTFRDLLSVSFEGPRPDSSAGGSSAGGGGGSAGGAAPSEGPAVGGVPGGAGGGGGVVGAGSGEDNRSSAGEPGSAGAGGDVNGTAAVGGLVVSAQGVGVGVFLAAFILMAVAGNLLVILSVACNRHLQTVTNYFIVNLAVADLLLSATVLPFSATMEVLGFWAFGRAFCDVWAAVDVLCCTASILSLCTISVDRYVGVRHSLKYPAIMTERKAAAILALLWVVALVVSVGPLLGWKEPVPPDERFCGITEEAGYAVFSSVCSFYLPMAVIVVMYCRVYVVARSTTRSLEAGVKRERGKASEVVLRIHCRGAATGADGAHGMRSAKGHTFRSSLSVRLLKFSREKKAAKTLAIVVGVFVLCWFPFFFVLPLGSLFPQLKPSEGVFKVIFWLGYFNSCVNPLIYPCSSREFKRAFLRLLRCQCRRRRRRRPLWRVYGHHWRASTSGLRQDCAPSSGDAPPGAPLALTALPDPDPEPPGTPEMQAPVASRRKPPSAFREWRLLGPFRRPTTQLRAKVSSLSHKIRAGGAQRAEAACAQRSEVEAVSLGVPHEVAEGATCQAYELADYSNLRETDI

[2] = target: C-C chemokine receptor type 2 (Homo sapiens, UniProt P41597); format: cell membranes, CHO-K1, Membrane; details: cho-k1; further: in other assays of this panel Not Active means under 50% inhibition at 10 µM
[3] = target: T2, C-X-C chemokine receptor type 1 (Homo sapiens, UniProt P25024); further: in other assays of this panel Not Active means under 50% inhibition at 10 µM
T2 sequence (P25024 whole entry): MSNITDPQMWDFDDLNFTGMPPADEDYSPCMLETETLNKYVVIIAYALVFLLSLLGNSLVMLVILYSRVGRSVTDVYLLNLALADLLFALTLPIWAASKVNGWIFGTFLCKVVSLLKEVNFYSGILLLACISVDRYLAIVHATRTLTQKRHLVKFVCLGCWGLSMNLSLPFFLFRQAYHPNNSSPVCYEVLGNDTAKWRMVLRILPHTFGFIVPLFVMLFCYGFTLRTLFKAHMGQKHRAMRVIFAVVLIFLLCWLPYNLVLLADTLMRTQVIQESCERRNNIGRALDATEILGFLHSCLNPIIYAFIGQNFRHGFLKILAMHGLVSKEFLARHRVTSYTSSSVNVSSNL

[4] = DRUGMATRIX: GABAA, Chloride Channel, TBOB radioligand binding (ligand: [3H] TBOB); format: cell membranes, Rattus norvegicus, Wistar, Cerebral cortex, Membrane; details: Not Active = under 50% inhibition at 10 µM
[5] = DRUGMATRIX: Glutamate, Kainate radioligand binding (ligand: [3H] Kainic acid); format: cell membranes, Rattus norvegicus, Wistar, Brain, Membrane; details: Not Active = under 50% inhibition at 10 µM
[6] = DRUGMATRIX: Glutamate, NMDA, Phencyclidine radioligand binding (ligand: [3H] TCP); format: cell membranes, Rattus norvegicus, Wistar, Cerebral cortex, Membrane; details: Not Active = under 50% inhibition at 10 µM
[7] = target: T3, Progesterone receptor (Bos taurus, UniProt Q690N0); assay: DRUGMATRIX: Progesterone radioligand binding (ligand: [3H] R-5020); format: tissue-based, Uterus; details: Not Active = under 50% inhibition at 10 µM
T3 sequence (Q690N0 whole entry): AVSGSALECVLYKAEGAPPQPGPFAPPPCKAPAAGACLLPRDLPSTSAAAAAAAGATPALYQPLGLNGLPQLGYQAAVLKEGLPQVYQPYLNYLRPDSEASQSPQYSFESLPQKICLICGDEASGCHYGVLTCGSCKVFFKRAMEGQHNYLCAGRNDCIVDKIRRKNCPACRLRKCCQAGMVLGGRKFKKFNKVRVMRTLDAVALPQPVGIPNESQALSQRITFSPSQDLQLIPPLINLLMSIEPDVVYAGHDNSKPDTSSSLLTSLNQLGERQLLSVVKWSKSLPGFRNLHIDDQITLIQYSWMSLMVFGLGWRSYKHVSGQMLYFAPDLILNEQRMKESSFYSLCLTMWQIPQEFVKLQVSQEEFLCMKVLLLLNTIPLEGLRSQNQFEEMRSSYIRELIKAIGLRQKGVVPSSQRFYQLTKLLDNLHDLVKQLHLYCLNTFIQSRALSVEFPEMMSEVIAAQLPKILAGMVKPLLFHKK

C-C chemokine receptor type 2, sequence (P41597 whole entry): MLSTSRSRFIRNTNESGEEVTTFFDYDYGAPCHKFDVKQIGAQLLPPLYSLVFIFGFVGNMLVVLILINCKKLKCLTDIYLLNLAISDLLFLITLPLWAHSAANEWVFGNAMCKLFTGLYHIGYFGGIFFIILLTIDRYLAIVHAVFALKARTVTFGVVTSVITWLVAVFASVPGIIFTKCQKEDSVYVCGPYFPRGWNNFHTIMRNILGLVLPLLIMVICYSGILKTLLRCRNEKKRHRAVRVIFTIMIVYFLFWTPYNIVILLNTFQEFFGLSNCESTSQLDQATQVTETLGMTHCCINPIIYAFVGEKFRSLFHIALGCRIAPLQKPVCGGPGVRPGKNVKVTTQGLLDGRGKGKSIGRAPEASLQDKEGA

CADMIUM ACETATE
Not Active: IC50 [1] | Ki [1] | IC50 [2] | Ki [2] | IC50 [3] | Ki [3] | IC50 [4] | Ki [4] | IC50 [5] | Ki [5] | IC50 [6] | Ki [6] | IC50 [7] | Ki [7]

LEAD (II) ACETATE
Not Active: IC50 [1] | Ki [1] | IC50 [2] | Ki [2] | IC50 [3] | Ki [3] | IC50 [4] | Ki [4] | IC50 [5] | Ki [5] | IC50 [6] | Ki [6] | IC50 [7] | Ki [7]

LIPOPOLYSACCHARIDE E. COLI O55:B5
Not Active: IC50 [1] | Ki [1] | IC50 [2] | Ki [2] | IC50 [3] | Ki [3] | IC50 [4] | Ki [4] | IC50 [5] | Ki [5] | IC50 [6] | Ki [6] | IC50 [7] | Ki [7]
